This note sets out measurements from publication PMC11261605, “Photocontrolled Reversible Amyloid Fibril Formation of Parathyroid Hormone-Derived Peptides” (Bioconjugate Chemistry, 2024).

Series [1] in a line: Maximal solubility in buffered solution. The series is classed as physicochemical. To be noted: phosphate buffer, aqueous buffer; maximal solubility from solid (0.5 mg portions into 1 mL until precipitate); 50 mM aqueous Na2HPO4 pH 7.4; centrifuged 10 000 rpm 1 h 4 °C; supernatant by UV/vis absorbance. How it is done: UV/vis-absorbance spectroscopy was measured on a JASCO V-660 absorbance spectrometer in a 1 cm quartz glass cuvette. For PTH25–37, the absorbance was measured at 205 nm with a molar extinction coefficient of 49.310 cm^–1 M^–1; trans-azobenzene containing peptides were measured at 327 nm with a molar extinction coefficient of 13.000 cm^–1 M^–1. CD spectroscopy was measured with a JASCO J-1500 CD Spectrometer in either a 1 mm. As buffered solution, a 50 mM aqueous Na2HPO4 buffer solution was used with a pH value adjusted to 7.4. Transmission was measured with a Litesizer DLS 500 from Anton Paar using a 3 mm × 3 mm quartz glass cuvette. The irradiation wavelength was 658 nm. The equilibration time was 1 min, and the measurement time was 10 s. The temperature was maintained at 25 °C.
To determine the maximal solubility of a peptide, small amounts (0.5 mg) of the respective peptide were added to 1 mL of buffered solution and shacked for 10 s until an insoluble precipitate was visible. The suspensions were centrifuged at 10 000 rpm for 1 h at 4 °C, and the supernatant was transferred to another tube. The remaining monomer concentration was determined using UV/vis-absorbance spectroscopy. To determine the critical concentration ccr, two samples were prepared for each peptide according to the procedure for the ThT monitored fibrillization assay, one with ThT as a reference sample and the other one without ThT. Twenty hours after the reference sample reached the stationary phase, the fibril containing solutions from the sample without ThT were transferred to a tube and centrifuged at 10 000 rpm for 1 h at room temperature. The supernatant was transferred to another tube, and the concentration of the remaining monomers was determined using UV/vis-absorbance spectroscopy at 278 nm with a molar extinction coefficient of 3750 cm^–1 M^–1 for the azobenzene containing peptides and at 205 nm with a molar extinction coefficient of 49 310 cm^–1 M^–1 for PTH25–37.

The subject of the next series is 3T3 cells. As to the kind of experiment: Resazurin reduction cell viability assay on 3T3 fibroblasts. The note with it: trans-isomers, serial dilutions, 24 h or 96 h incubation, n = 8 per treatment, 3 independent experiments. The series is classed as cell-based, murine. How it is done: (§1) Cell viability was determined for trans-P4, trans-P8, and trans-P12 on NHDF as well as 3T3 fibroblasts with a resazurin reduction assay. Briefly, cells were seeded at desired cell densities in corresponding culture media supplemented with 10% FCS and penicillin/streptomycin in 96-well plates on day 0 and incubated overnight under standard cell culture conditions. On day 1, serial dilutions of the peptides in cell culture media were prepared. Then, medium (background and negative control–100% viability), TritonX in medium f.c. 0.025% (postive control–0% viability), and the peptide dilutions were added with one treatment per column (n = 8). Incubation for 24 h or 96 h under standard cell culture conditions followed. On day of measurement, resazurin stock solution was added to a final concentration of 44 μM into each well. After 2 h incubation, the resorufin fluorescence was measured with a Cytation 5 plate reader system. Means and standard deviation of each column were calculated. Experiments were repeated independently 3 times, and average values were evaluated (see Figure S12).
(§2) Figure S12: Cell viability assay of trans-P4, trans-P8, and trans-P12 on NHDF (human, adult, fibroblasts) and 3T3 (murine,
(§3) embryonal, fibroblasts) cells after 24 h (blue) and 96 h (orange). 100% cell viability corresponds to the value of the negative,
(§4) (1 picture or pasted object on this page, not shown here)
Background: Resazurin is reduced to fluorescent resorufin, in cell work by metabolically active cells.

The subject of a further series is NHDF cells. Briefly: Resazurin reduction cell viability assay on NHDF fibroblasts. The format is cell-based, human. The note with it: trans-isomers, serial dilutions, 24 h or 96 h incubation, n = 8 per treatment, 3 independent experiments. How it is done:
as §1, §2, §3, §4

Values after ≈ are worked out from the molar mass of the structure shown. *1 amine or outer side, *2 acyl side, *3 side chain or, on linkers, in order; H or OH if unused. Where a SMILES comes first, the peptide text is derived from it. Where no end group is shown, it is not given here. [ ]: non-standard residue; d: D form. X1 = O=C(c1cccc(N=Nc2ccc(CN[*:1])cc2)c1)[*:2]

As usually defined, the solubility (thermodynamic) is the concentration in solution at equilibrium with solid. `CC(C)C[C@H](NC(=O)[C@H](C)NC(=O)[C@@H](NC(=O)[C@H](Cc1ccccc1)NC(=O)[C@H](CC(N)=O)NC(=O)[C@H](Cc1c[nH]cn1)NC(=O)[C@@H](NC(=O)c1cccc(N=Nc2ccc(CNC(=O)[C@H](CC(=O)O)NC(=O)[C@H](CCC(N)=O)NC(=O)[C@H](CC(C)C)NC(=O)[C@H](CCCCN)NC(=O)[C@H](CCCCN)NC(=O)[C@@H](N)CCCNC(=N)N)cc2)c1)C(C)C)C(C)C)C(=O)O` [P1] (H-RKKLQD[X1]VHNFVAL-OH) gave a thermodynamic solubility at 10 s in series [1] of 90 µM (≈ 162 µg/mL). Consider `CC(C)C[C@H](NC(=O)[C@H](C)NC(=O)[C@@H](NC(=O)[C@H](Cc1ccccc1)NC(=O)[C@H](CC(N)=O)NC(=O)[C@H](Cc1c[nH]cn1)NC(=O)c1cccc(N=Nc2ccc(CNC(=O)[C@@H](NC(=O)[C@H](CC(=O)O)NC(=O)[C@H](CCC(N)=O)NC(=O)[C@H](CC(C)C)NC(=O)[C@H](CCCCN)NC(=O)[C@H](CCCCN)NC(=O)[C@@H](N)CCCNC(=N)N)C(C)C)cc2)c1)C(C)C)C(=O)O` [P2] (H-RKKLQDV[X1]HNFVAL-OH), for which the solubility (thermodynamic) at 10 s in series [1] turned out to be 60 µM (≈ 108 µg/mL). Same read-out and setting: the value for `CC(C)C[C@H](NC(=O)[C@H](C)NC(=O)[C@@H](NC(=O)[C@H](Cc1ccccc1)NC(=O)[C@H](CC(N)=O)NC(=O)[C@H](Cc1c[nH]cn1)NC(=O)[C@@H](NC(=O)c1cccc(N=Nc2ccc(CNC(=O)[C@H](CCC(N)=O)NC(=O)[C@H](CC(C)C)NC(=O)[C@H](CCCCN)NC(=O)[C@H](CCCCN)NC(=O)[C@@H](N)CCCNC(=N)N)cc2)c1)C(C)C)C(C)C)C(=O)O` [P3] (H-RKKLQ[X1]VHNFVAL-OH) was 35 µM (≈ 59.2 µg/mL). For `CC(C)C[C@H](NC(=O)[C@H](C)NC(=O)[C@@H](NC(=O)[C@H](Cc1ccccc1)NC(=O)[C@H](CC(N)=O)NC(=O)[C@H](Cc1c[nH]cn1)NC(=O)c1cccc(N=Nc2ccc(CNC(=O)[C@H](CC(=O)O)NC(=O)[C@H](CCC(N)=O)NC(=O)[C@H](CC(C)C)NC(=O)[C@H](CCCCN)NC(=O)[C@H](CCCCN)NC(=O)[C@@H](N)CCCNC(=N)N)cc2)c1)C(C)C)C(=O)O` [P4] (H-RKKLQD[X1]HNFVAL-OH), the thermodynamic solubility at 10 s in series [1] is 370 µM (≈ 631 µg/mL). In addition, the “toxicity toward 3T3 cells” value in the series with 3T3 cells was “did not observe any toxicity”. The “toxicity toward NHDF cells” value in the series with NHDF cells is reported as “did not observe any toxicity”. As for `CC(C)C[C@H](NC(=O)[C@H](C)NC(=O)[C@@H](NC(=O)[C@H](Cc1ccccc1)NC(=O)[C@H](CC(N)=O)NC(=O)[C@H](Cc1c[nH]cn1)NC(=O)c1cccc(N=Nc2ccc(CNC(=O)[C@H](CCC(N)=O)NC(=O)[C@H](CC(C)C)NC(=O)[C@H](CCCCN)NC(=O)[C@H](CCCCN)NC(=O)[C@@H](N)CCCNC(=N)N)cc2)c1)C(C)C)C(=O)O` [P5] (H-RKKLQ[X1]HNFVAL-OH), the thermodynamic solubility at 10 s in series [1] was found to be 25 µM (≈ 39.8 µg/mL). On the same count and under the same terms, the value for `CC(C)C[C@H](NC(=O)[C@H](C)NC(=O)[C@@H](NC(=O)[C@H](Cc1ccccc1)NC(=O)[C@H](CC(N)=O)NC(=O)[C@H](Cc1c[nH]cn1)NC(=O)[C@@H](NC(=O)[C@H](CC(=O)O)NC(=O)c1cccc(N=Nc2ccc(CNC(=O)[C@H](CCC(N)=O)NC(=O)[C@H](CC(C)C)NC(=O)[C@H](CCCCN)NC(=O)[C@H](CCCCN)NC(=O)[C@@H](N)CCCNC(=N)N)cc2)c1)C(C)C)C(C)C)C(=O)O` [P6] (H-RKKLQ[X1]DVHNFVAL-OH) was 20 µM (≈ 36.1 µg/mL); that for `CC(C)C[C@H](NC(=O)[C@H](C)NC(=O)[C@@H](NC(=O)[C@H](Cc1ccccc1)NC(=O)[C@H](CC(N)=O)NC(=O)[C@H](Cc1c[nH]cn1)NC(=O)[C@@H](NC(=O)[C@H](CC(=O)O)NC(=O)[C@H](CCC(N)=O)NC(=O)c1cccc(N=Nc2ccc(CNC(=O)[C@H](CC(C)C)NC(=O)[C@H](CCCCN)NC(=O)[C@H](CCCCN)NC(=O)[C@@H](N)CCCNC(=N)N)cc2)c1)C(C)C)C(C)C)C(=O)O` [P7] (H-RKKL[X1]QDVHNFVAL-OH) was 140 µM (≈ 253 µg/mL). Regarding `CC(C)C[C@H](NC(=O)[C@H](C)NC(=O)[C@@H](NC(=O)[C@H](Cc1ccccc1)NC(=O)[C@H](CC(N)=O)NC(=O)[C@H](Cc1c[nH]cn1)NC(=O)[C@@H](NC(=O)[C@H](CC(=O)O)NC(=O)[C@H](CCC(N)=O)NC(=O)[C@H](CC(C)C)NC(=O)[C@H](CCCCN)NC(=O)c1cccc(N=Nc2ccc(CNC(=O)[C@H](CCCCN)NC(=O)[C@@H](N)CCCNC(=N)N)cc2)c1)C(C)C)C(C)C)C(=O)O` [P8] (H-RK[X1]KLQDVHNFVAL-OH), the solubility (thermodynamic) at 10 s in series [1] came to 200 µM (≈ 361 µg/mL). In the series with 3T3 cells, the “toxicity toward 3T3 cells” value is listed as “did not observe any toxicity”. The “toxicity toward NHDF cells” value in the series with NHDF cells is given as “did not observe any toxicity”.

`CC(C)C[C@H](NC(=O)[C@H](C)NC(=O)[C@@H](NC(=O)[C@H](Cc1ccccc1)NC(=O)[C@H](CC(N)=O)NC(=O)[C@H](Cc1c[nH]cn1)NC(=O)[C@@H](NC(=O)[C@H](CC(=O)O)NC(=O)[C@H](CCC(N)=O)NC(=O)[C@H](CC(C)C)NC(=O)[C@H](CCCCN)NC(=O)c1cccc(N=Nc2ccc(CNC(=O)[C@@H](N)CCCNC(=N)N)cc2)c1)C(C)C)C(C)C)C(=O)O` [P9] (H-R[X1]KLQDVHNFVAL-OH): in series [1], the solubility (thermodynamic) at 10 s worked out at 130 µM (≈ 218 µg/mL). Take `CC(C)C[C@H](NC(=O)[C@H](C)NC(=O)[C@@H](NC(=O)[C@H](Cc1ccccc1)NC(=O)c1cccc(N=Nc2ccc(CNC(=O)[C@H](CC(N)=O)NC(=O)[C@H](Cc3c[nH]cn3)NC(=O)[C@@H](NC(=O)[C@H](CC(=O)O)NC(=O)[C@H](CCC(N)=O)NC(=O)[C@H](CC(C)C)NC(=O)[C@H](CCCCN)NC(=O)[C@H](CCCCN)NC(=O)[C@@H](N)CCCNC(=N)N)C(C)C)cc2)c1)C(C)C)C(=O)O` [P10] (H-RKKLQDVHN[X1]FVAL-OH): the thermodynamic solubility at 10 s in series [1] amounted to 7 µM (≈ 12.6 µg/mL).

`CC(C)C[C@H](NC(=O)[C@H](C)NC(=O)c1cccc(N=Nc2ccc(CNC(=O)[C@@H](NC(=O)[C@H](Cc3ccccc3)NC(=O)[C@H](CC(N)=O)NC(=O)[C@H](Cc3c[nH]cn3)NC(=O)[C@@H](NC(=O)[C@H](CC(=O)O)NC(=O)[C@H](CCC(N)=O)NC(=O)[C@H](CC(C)C)NC(=O)[C@H](CCCCN)NC(=O)[C@H](CCCCN)NC(=O)[C@@H](N)CCCNC(=N)N)C(C)C)C(C)C)cc2)c1)C(=O)O` [P11] (H-RKKLQDVHNFV[X1]AL-OH): the thermodynamic solubility at 10 s in series [1] is 20 µM (≈ 36.1 µg/mL). This solubility thermodynamic at 10 s lies about 2.9-fold higher than the previous one. For `CC(C)C[C@H](NC(=O)[C@H](C)NC(=O)c1cccc(N=Nc2ccc(CNC(=O)[C@H](Cc3ccccc3)NC(=O)[C@H](CC(N)=O)NC(=O)[C@H](Cc3c[nH]cn3)NC(=O)[C@@H](NC(=O)[C@H](CC(=O)O)NC(=O)[C@H](CCC(N)=O)NC(=O)[C@H](CC(C)C)NC(=O)[C@H](CCCCN)NC(=O)[C@H](CCCCN)NC(=O)[C@@H](N)CCCNC(=N)N)C(C)C)cc2)c1)C(=O)O` [P12] (H-RKKLQDVHNF[X1]AL-OH), in series [1], the thermodynamic solubility at 10 s turned out to be 135 µM (≈ 230 µg/mL). The “toxicity toward 3T3 cells” value in the series with 3T3 cells is recorded as “did not observe any toxicity”. In addition, the “toxicity toward NHDF cells” value in the series on NHDF cells is “did not observe any toxicity”.

As to “RKKLQDVHNFVAL [PTH25–37, reference compound]”, in series [1], the thermodynamic solubility at 10 s is more than 500 µM.
